From US5162354A, “3-halo-5-halomethyl-2-oxazolidinones and their use as microbicides” (Buckman Laboratories International, Inc., priority 1991, dated 1992) come the findings set out here.

In brackets after ≈: the same amount, converted by molar mass. Where two headings read alike, the source gives them in different places.

What all share (assay type): cell-based
The test system of experiment [1] is Aspergillus niger. Nature of the experiment: Growth inhibiting activity on the fungus Aspergillus niger. Conditions: Aspergillus niger pH 6.0; completely prevented growth; read-out: Minimum inhibitory concentration against fungi. The procedure: The microorganism growth inhibiting activity of compounds 1-4 on the fungus Aspergillus niger was evaluated. The method is described in U.S. Pat. No. 4,945,109, column 5 beginning at line 47 to column 6, line 33. The disclosure of U.S. Pat. No. 4,945,109 is incorporated herein by reference.

For experiment [2], the system named is Chlorococcum hypnosporum. Nature of the experiment: Growth inhibiting activity against algae in Difco Algae Broth (Chlorococcum hypnosporum). Conditions: 672 h. The procedure: (§1) The growth inhibiting activity of the method of the invention against the three algae Chlorella pyrenoidosa, Chlorococcum hypnosporum and Phormidium inundatum was evaluated in Difco Algae Broth, the content of which was as follows:
(§2) Forty-gram portions of the algae medium were added to 250 mL Pyrex Erlenmeyer flasks fitted with loose metal caps and then sterilized. Each of the following substances was then added to the flasks in the order listed:
(§3) 1. Sterile algae medium as required to bring the total weight of the contents of each flask to 50 grams, after allowing for all subsequent additions specified below.
(§4) 2. A solution of one of compounds 1-4 or of a control agent to be evaluated in each test, to give the concentration desired in parts per million by weight.
(§5) 3. Chlorella pyrenoidosa, Chlorococcum hypnosporum and Phormidium inundatum in amounts sufficient to give excellent growth in the controls after 14 days. This was achieved by adding 1 milliliter of a 14 day old culture having luxuriant growth. The Chlorella pyrenoidosa culture was obtained from American Type Culture Collection No. 7516; Chlorococcum hypnosporum, from the University of TX at Austin; and Phormidium inundatum, WI No. 1093, from the University of WA.
(§6) As a control experiment, WSCP was used as a positive control agent. WSCP is a known toxicant which kills C. pyrenoidosa at 2 ppm, C. hypnosporum at 2ppm, and P. inundatum at 10 ppm. Control experiments were also carried out where no toxicants were employed. In the algicidal tests, the growth of algae in the nutrient medium is lush green and can be seen with the naked eye. Because the minimum inhibitory concentrations of the compounds in this example are those which result in complete inhibition, evaluation of the test results is not subjective.
(§7) After the inoculum of the test algae was added, the flasks were incubated at a temperature of 28°±2° C. under fluorescent illumination of 250 foot-candle intensity (8 hours light, 16 hours darkness) for a period adequate for growth in the controls (those portions of medium which contained no toxicant). Observations of growth were made at 7-day intervals. Minimum inhibitory concentrations are those that prevented complete growth after 28 days.

For experiment [3], the system named is Phormidium inundatum. Nature of the experiment: Growth inhibiting activity against algae in Difco Algae Broth (Phormidium inundatum). Conditions: 672 h. The procedure:
as §1, §2, §3, §4, §5, §6, §7

In experiment [4] the test system is Enterobacter aerogenes. Nature of the experiment: Basal salts method, minimum inhibitory concentration against Enterobacter aerogenes. To be noted: Klebsiella aerogenes, at least 80% kill. The procedure: Compounds 1-4 of Examples 3-6 of the present invention were tested by the basal salts method described in U.S. Pat. No. 2,881,070 at column 5, beginning at line 12 and extending to column 6, line 53. […] The minimum inhibitory concentrations are those in which a percentage kill of at least 80% is obtained.

Experiment [5] concerns Chlorella pyrenoidosa. Nature of the experiment: Growth inhibiting activity against algae in Difco Algae Broth (Chlorella pyrenoidosa). To be noted: Auxenochlorella pyrenoidosa, 672 h. The procedure: as §1, §2, §3, §4, §5, §6, §7
[6] abbreviates: pH 7, read-out: Minimum inhibitory concentration against algae.

Take `O=C1OC(CCl)CN1Cl` (stereo not drawn) [Compound 2, 3-Chloro-5-chloromethyl-2-oxazolidinone]: the MIC in experiment [1] was found to be 128 µg/mL (≈ 753 µM); in experiment [2] (setting [6]) it was 1 µg/mL (≈ 5.88 µM); in experiment [3] (setting [6]), 1 µg/mL (≈ 5.88 µM); in experiment [4] (pH 6.0), 8 µg/mL; in experiment [4] (pH 8.0), 10 µg/mL; in experiment [5] (setting [6]), 1 µg/mL (≈ 5.88 µM).

In the case of `O=C1OC(CBr)CN1Br` (stereo not drawn) [Compound 3, 3-Bromo-5-bromomethyl-2-oxazolidinone], the MIC worked out at 100 µg/mL (≈ 386 µM) in experiment [1]; 8 µg/mL (≈ 30.9 µM) in experiment [2] (C. hypnosporum, pH 7, 28 days, read-out: Minimum inhibitory concentration against algae); 2 µg/mL (≈ 7.73 µM) in experiment [3] (P. inundatum, pH 7, 28 days, read-out: Minimum inhibitory concentration against algae); 2 µg/mL in experiment [4] (pH 6.0); 4 µg/mL in experiment [4] (pH 8.0); 2 µg/mL (≈ 7.73 µM) in experiment [5] (C. pyrenoidosa, pH 7, 28 days, read-out: Minimum inhibitory concentration against algae).

For the compound `O=C1OC(CBr)CN1Cl` (stereo not drawn) [Compound 4, 3-Chloro-5-bromomethyl-2-oxazolidinone], the MIC stood at 100 µg/mL (≈ 466 µM) in experiment [1]; 8 µg/mL (≈ 37.3 µM) in experiment [2] (setting [6]); 8 µg/mL (≈ 37.3 µM) in experiment [3] (setting [6]); 10 µg/mL in experiment [4] (pH 6.0); 20 µg/mL in experiment [4] (pH 8.0); 4 µg/mL (≈ 18.7 µM) in experiment [5] (setting [6]).
